Calls of active or inactive are those of the source. The rule behind the calls is not given here.
What was measured:
BXPC-3 [1] = assay: Antiproliferative activity against human BxPC3 cells harboring wild type KRAS and TP53 mutation assessed as maximal inhibition of cell growth at 2.5 uM incubated for 96 hrs by cell-titer-Glo assay; format: functional, cell-based
Capan-2 [2] = assay: Antiproliferative activity against human Capan2 cells harboring TP53 and G12V KRAS mutations assessed as inhibition of cell growth incubated for 96 hrs by cell-titer-Glo 2.0 assay relative to control
BXPC-3 [3] = assay: Antiproliferative activity against human BxPC3 cells harboring wild type KRAS and TP53 mutation assessed as inhibition of cell growth at 25 uM incubated for 96 hrs by cell-titer-Glo 2.0 assay; format: functional, cell-based
Capan-2 [4] = assay: Antiproliferative activity against human Capan2 cells harboring TP53 and G12V KRAS mutations assessed as inhibition of cell growth at 25 uM incubated for 96 hrs by cell-titer-Glo 2.0 assay
BXPC-3 [5] = assay: Antiproliferative activity against human BxPC3 cells harboring wild type KRAS and TP53 mutation assessed as cell killing incubated for 96 hrs by cell-titer-Glo 2.0 assay relative to control; format: functional
BXPC-3 [6] = assay: Antiproliferative activity against human BxPC3 cells harboring wild type KRAS and TP53 mutation assessed as inhibition of cell growth incubated for 96 hrs by cell-titer-Glo 2.0 assay; format: functional, cell-based; conditions: BXPC-3, 96 h
Capan-2 [7] = assay: Antiproliferative activity against human Capan2 cells harboring TP53 and G12V KRAS mutations assessed as inhibition of cell growth incubated for 96 hrs by cell-titer-Glo assay; conditions: Capan-2, 96 h
Capan-2 [8] = assay: Antiproliferative activity against human Capan2 cells harboring TP53 and G12V KRAS mutations assessed as cell killing incubated for 96 hrs by cell-titer-Glo 2.0 assay relative to control

With `Nc1ccn([C@@H]2O[C@H](CO)[C@@H](O)C2(F)F)c(=O)n1` [GEMCITABINE] the inhibition (BXPC-3 [1]) was “Active” and the Imax (Capan-2 [2]) was 40%.

In the case of `C[C@]1(CC#N)[C@H](F)[C@H](n2cnc3c(N)nc(Cl)nc32)O[C@@H]1CO`, the inhibition (BXPC-3 [3]) is reported as “inactive” and the inhibition (Capan-2 [4]) is reported as “inactive”.

`CC(C)OC(=O)[C@H](C)N[P@](=O)(OC[C@H]1O[C@@H](n2cnc3c(NCc4ccccc4)nc(Cl)nc32)[C@@H](F)[C@]1(C)CC#N)Oc1ccccc1` showed an Activity (BXPC-3 [5]) of 60%, an EC50 (BXPC-3 [6]) of 12 µM and an EC50 (Capan-2 [7]) of 7 µM. For the same compound, the Activity (Capan-2 [8]) was 80%.

In the case of `C[C@]1(CC#N)[C@H](F)[C@H](n2cnc3c(NCc4ccccc4)nc(Cl)nc32)O[C@@H]1CO`, the Activity (BXPC-3 [5]) is reported as 20%.
